Experimental data reported in US20260174875A1 (Novo Nordisk A/S, priority 2023, published 2026).
Like-named read-outs stand apart in the source and are kept apart here. Numbered stars: 1 amine (or outer) side, 2 acyl side, 3 side chain; on linkers, the order of the positions; unused ones are H or OH. Square brackets hold non-standard residues; d marks the D form. Side chains are listed from the residue outwards. * marks the point of attachment. C20 diacid = O=C(O)CCCCCCCCCCCCCCCCCCC(=O)*; C18 diacid = O=C(O)CCCCCCCCCCCCCCCCC(=O)*; γGlu = O=C(O)[C@H](CCC(=O)[*:2])N[*:1]; AEEA = NCCOCCOCC(=O)O; Aib = CC(C)(N)C(=O)O

Columns and labels:
[1] = target: T1, human amylin receptor (hAMYR3) (Homo sapiens, UniProt O60896+P30988); test: Amylin receptor assay, method A (CRE-luciferase reporter, BHK cells); assay type: cell-based
T1 construct: host or cells: BHK cells (Hollex-1 line expressing hCTR(a) and CRE-Luc), further transfected with human RAMP3
T1 sequence (P30988 25-474): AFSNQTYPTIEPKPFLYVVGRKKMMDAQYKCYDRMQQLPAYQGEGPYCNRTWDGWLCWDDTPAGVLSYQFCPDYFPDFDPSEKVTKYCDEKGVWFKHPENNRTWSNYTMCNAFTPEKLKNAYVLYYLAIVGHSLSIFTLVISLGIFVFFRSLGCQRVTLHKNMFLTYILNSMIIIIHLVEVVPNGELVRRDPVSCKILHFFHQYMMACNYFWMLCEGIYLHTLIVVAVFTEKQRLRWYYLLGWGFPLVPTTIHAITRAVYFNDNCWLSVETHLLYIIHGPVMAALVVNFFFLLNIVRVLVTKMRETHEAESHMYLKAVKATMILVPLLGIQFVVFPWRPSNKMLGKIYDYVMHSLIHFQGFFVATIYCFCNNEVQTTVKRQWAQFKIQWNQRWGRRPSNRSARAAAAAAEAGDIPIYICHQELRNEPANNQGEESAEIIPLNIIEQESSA
T1 sequence (O60896 24-148): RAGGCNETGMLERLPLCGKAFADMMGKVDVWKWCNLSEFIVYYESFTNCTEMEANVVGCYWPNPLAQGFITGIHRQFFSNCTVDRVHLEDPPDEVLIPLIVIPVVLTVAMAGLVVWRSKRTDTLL

[2] = test system: Male Sprague Dawley (SD) rats; test: Efficacy testing on appetite: acute food intake in ad libitum fed normal weight rats; assay type: in vivo, rat; settings: for Food intake (relative to vehicle) Day 1: day 1 [0-24 hours]; for Food intake (relative to vehicle) Day 2: day 2 [24-48 hours]; for Food intake (relative to vehicle) Day 3: day 3 [48-72 hours]
Excerpt: Male Sprague Dawley (SD) rats from Taconic, Denmark were used for the acute food intake experiments, wherein the principles of laboratory animal care were followed.
The rats arrived at least 10-14 days before the start of the experiment to allow acclimatization to experimental settings. During this period, the animals were handled (fixation by restrain in neck skin) at least 2 times. Immediately upon arrival, rats were changed to a reversed light cycle (dark from 11 am-11 pm) and were transferred to an automated food intake measuring system (HM2 system, MBRose; Faaborg, Denmark). […] To enable recording of individual food intake, rats were ID chipped. Three rats were housed in each cage. During the acclimatization period, in which the rats get used to the new light cycle and diet (LF 10% (D12450B), from Research Diets Inc.), the animals had free access to food and water. Since rats are normally active and consume most of their daily calories during the dark period, rats were dosed in the morning right before lights were turned off. Such a set-up results in the lowest data variation and highest test sensitivity. […] In each cage there were animals from three different treatment groups (to eliminate potential cage effects (e.g. cage malfunction) on primary readout: food intake). The rats were dosed once subcutaneously (s.c.) with the peptide of interest according to body weight (10 or 30 nmol/kg) in vehicle (0.5 ml/kg) using a NovoPen® (Novo Nordisk, Bagsvæed, Denmark).
The compounds of the invention were formulated (20 or 60 nmol/ml) in the following vehicle: 8 mM phosphate; 250 mM glycerol; 0.007% polysorbate 20, pH 7.4.
After dosing, the rats were returned to their home cages, where they continued to have ad libitum access to chow and water. The food consumption was recorded individually and continuously by the HM2 system from 0-72 h after test compound administration. Data obtained by the HM-2 system were stored in a HMBase SQL database (Firebird® relational database management system) and were processed by HM2Lab software (MBRose; Faaborg, Denmark) installed in an embedded computer. The feeding system is a highly sensitive system with a load resolution of 0.001 g.

[3] = hAMYR3 Potency, 1% HSA, EC50, method A, in the presence of 1% HSA
[4] = method A, absence of HSA, read-out: hAMYR3 Potency, no HSA, EC50

Substance | EC50 [1, 3] [nM] | EC50 [1, 4] [nM] | Food intake (relative to vehicle) Day 1 ([2]; single dose 30 nmol/kg) [%] | Food intake (relative to vehicle) Day 2 ([2]; single dose 30 nmol/kg) [%] | Food intake (relative to vehicle) Day 3 ([2]; single dose 30 nmol/kg) [%] | Food intake (relative to vehicle) Day 1 ([2]; single dose 10 nmol/kg) [%] | Food intake (relative to vehicle) Day 2 ([2]; single dose 10 nmol/kg) [%] | Food intake (relative to vehicle) Day 3 ([2]; single dose 10 nmol/kg) [%]
Y[Aib]EGTFTSDYSILLEEQAAREFIEWLLAGGPSK([AEEA-AEEA-γGlu-C18 diacid])GEASELSTAALGRLSAELHELATLPRTETGSGSP-NH2 [Compound 26] | 0.349 | 0.0118 | −11 | −18 | 0 | – | – | –
Y[Aib]EGTFTSDYSILLEEQAAREFIEWLLAGGPSK([AEEA-AEEA-γGlu-C18 diacid])GEASHLSTAQTARLSAELHELATLPRTETGSGSP-NH2 [Compound 35] | – | 0.00421 | −42 | −18 | −16 | – | – | –
Y[Aib]EGTFTSDYSILLEEQAAREFIEWLLAGGPSK([AEEA-AEEA-γGlu-C18 diacid])GGQAPGQAPGEASHLSTAQTQRLSAELHELATLPRTETGSGSP-NH2 [Compound 38] | 0.172 | 0.00363 | – | – | – | −3 | −19 | 1
Y[Aib]EGTFTSDYSILLEEQAAREFIEWLLAGGPSSGAGQAPGASHLSTAQTQRLSAELHK([AEEA-AEEA-γGlu-C18 diacid])LATLPRTETGSGSP-NH2 [Compound 97] | 0.132 | 0.00281 | – | – | – | −65 | −82 | −42
Y[Aib]EGTFTSDYSILLEEQAAREFIEWLLAGGPSSGAGQAPGQAPGASHLSTAALGRLSAELHK([AEEA-AEEA-γGlu-C18 diacid])LATLPRTETGSGSP-NH2 [Compound 53] | 0.0759 | 0.00322 | – | – | – | −75 | −90 | −33
Y[Aib]EGTFTSDYSILLEEQAAREFIEWLLAGGPSSGAGQAPGQAPGASHLSTAQTQRLSAELHRLATLPK([AEEA-AEEA-γGlu-C18 diacid])TETGSGSP-NH2 [Compound 57] | 0.085 | 0.003 | – | – | – | −75 | −88 | −14
Y[Aib]EGTFTSDYSILLEEQAAREFIEWLLAGGPSSGAGQAPGQAPGASHLSTAQTQRLSAELHRLK([AEEA-AEEA-γGlu-C18 diacid])TLPRTETGSGSP-NH2 [Compound 56] | 0.0449 | 0.00236 | – | – | – | −69 | −77 | −10
Y[Aib]EGTFTSDYSILLEEQAAREFIEWLLAGGPSSGALQAPGQAPLASHLSTAQTQRLSAELHK([AEEA-AEEA-γGlu-C20 diacid])LATLPRTETGSGSP-NH2 [Compound 99] | 0.129 | 0.00282 | – | – | – | −69 | −84 | −46
Y[Aib]EGTFTSDYSILLEEQAAREFIEWLLAGGPSSGAPPPSGGGEASHLSTAQTQRLSAK([AEEA-AEEA-γGlu-C18 diacid])LHRLATLPRTETGSGSP-NH2 [Compound 109] | 0.032 | 0.00365 | – | – | – | −85 | −34 | −28
Y[Aib]EGTFTSDYSILLEEQAAREFIEWLLAGGPSSGAPPPSGGGEASHLSTAQTQRLSAK([AEEA-AEEA-γGlu-C20 diacid])LHRLATLPRTETGSGSP-NH2 [Compound 110] | 0.094 | 0.00327 | – | – | – | −75 | −54 | −23
Y[Aib]EGTFTSDYSILLEEQAAREFIEWLLAGGPSSGEASHLSTAQTQRLSAELHK([AEEA-AEEA-γGlu-C18 diacid])LATLPRTETGSGSP-NH2 [Compound 50] | 0.185 | 0.0032 | – | – | – | −54 | −60 | −21
Y[Aib]EGTFTSDYSILLEEQAAREFIEWLLAGGPSSGEASHLSTAQTQRLSAELHRLK([AEEA-AEEA-γGlu-C18 diacid])TLPRTETGSGSP-NH2 [Compound 80] | 0.0624 | 0.00323 | – | – | – | −84 | −78 | −23
Y[Aib]EGTFTSDYSILLEEQAAREFIEWLLAGGPSSGEASHLSTAQTQRLSAK([AEEA-AEEA-γGlu-C18 diacid])LHRLATLPRTETGSGSP-NH2 [Compound 79] | 0.0534 | 0.00353 | – | – | – | −70 | −54 | −5
